Earlier results on 1 molecule are cited in patent US20150231081A1, “DELAYED RELEASE POSACONAZOLE TABLETS” (CADILA HEALTHCARE LIMITED, priority 2014, published 2015).

The structures appear in SMILES notation. Where two headings read alike, the source gives them in different places.

On to `CC[C@@H]([C@H](C)O)n1ncn(-c2ccc(N3CCN(c4ccc(OC[C@@H]5CO[C@@](Cn6cncn6)(c6ccc(F)cc6F)C5)cc4)CC3)cc2)c1=O` [Posaconazole free base, 4-[4-[4-[4-[[(3R,5R)-5-(2,4-difluorophenyl)tetrahydro-5-(1H-1,2,4-triazol-1-ylmethyl)-3-furanyl]methoxy]phenyl]-1-piperazinyl]phenyl]-2-[(1S,2S)-1-ethyl-2-hydroxypropyl]-2,4-dihydro-3H-1,2,4-triazol-3-one], for which the solubility result (environments where the pH is about pH 6.4 or more basic) is listed as “less than 1 microgram/mL” and the solubility result (in stomach pH) is reported as “approximately 0.8 mg/mL”.
